From US20040067991A1, “Tetrahydrobenzothiazole analogues as neuroprotective agents” (priority 2003, published 2004)
Entries after “also recorded” stand apart in the source; their conditions may differ. Counter-ions that a name gives are not always drawn. Like-named read-outs stand apart in the source and are kept apart here.

Experiments:
caspase activation = assay: Caspase activation; assay type: cell-based
rat hippocampal neurons = assay: Neuronal survival assay in cultured hippocampal neurons treated with camptothecin or etoposide; assay type: cell-based; settings: for neuroprotection of hippocampal neurons against camptothecin (in words): 100 nM, added 1 h before camptothecin 5 μM; for neuroprotection of hippocampal neurons against etoposide (in words): added 1 h before etoposide 2.5 μM; for protection of primary hippocampal cells against death induced by camptothecin and etoposide (in words): camptothecin 5 μM, etoposide 2.5 μM, Hydrobromide; for protection of primary hippocampal cells against death induced by camptothecin and etoposide (in words) / neuronal survival: 24 h; for neuronal survival: pretreated with 100 nM of analogue, then camptothecin (5 μM)
Procedure: 2-amino-4,5,6,7-tetrahydrobenzothiazole hydrogen and 1-(4-methylphenyl)-2-(4,5,6,7-tetrahydro-2-imino-3(2H)-benzothiazolyl)-ethanone hydrobromide and their analogues were assessed for their ability to protect rat hippocampal cells in culture from camptothecin ([…]).
Dissociated hippocampal cell cultures were established from embryonic day 18 Sprague-Dawley rats (Harlan, Inc.) as described previously. […] 77:220-28. Cells were grown in polyethyleneimine-coated plastic dishes or 22 m^2 glass coverslips, and incubated in Neurobasal medium containing B27 supplements, 2 mM L-glutamine, 25 mg/ml gentamycin, 1 mM Hepes (Gibco BRL) and 0.001% gentamicin sulfate. All experiments were performed using 9-10 day-old cultures. Camptothecin and etoposide (Signia) were prepared as 500× stocks in DMSO. Neuron survival was quantified by established methods. […] Briefly, viable neurons in premarked fields (10× objective) were counted before experimental treatment and at specified time points thereafter. Neurons with intact neurites of uniform diameter and soma with a smooth round appearance were considered viable. In contrast neurons with fragmented neurites and vacuolated soma were considered non-viable.

[1] = tested on: primary hippocampal neurons; assay: Neuronal survival of primary hippocampal neurons after excitotoxic insult (glutamate); assay type: cell-based, rat; settings: for protection of hippocampal neurons against glutamate-induced death (in words): 0.04 μM 1 h before glutamate (20 μM), survival at 24 h; for neuron survival increased: neurons pretreated with compound, death induced by glutamate
Procedure: Dissociated hippocampal cell cultures were established from embryonic day 18 Sprague-Dawley rats (Harlan, Inc.) as described previously. See Culmsee et al. (2001) J. Neurochem. 77:220-28. Cells were grown in polyethyleneimine-coated plastic dishes or 22 m^2 glass coverslips, and incubated in Neurobasal medium containing B27 supplements, 2 mM L-glutamine, 25 mg/ml gentamycin, 1 mM Hepes (Gibco BRL) and 0.001% gentamicin sulfate. All experiments were performed using 9-10 day-old cultures. Camptothecin and etoposide (Signia) were prepared as 500× stocks in DMSO. Neuron survival was quantified by established methods. See Mattson et al. (1993) Neuron 10:243-54. Briefly, viable neurons in premarked fields (10× objective) were counted before experimental treatment and at specified time points thereafter. Neurons with intact neurites of uniform diameter and soma with a smooth round appearance were considered viable. In contrast neurons with fragmented neurites and vacuolated soma were considered non-viable.
Primary hippocampal neurons were prepared and cultured as described above. Cultures were pretreated with compounds 14 and 1 (0.04 μM) 1 h before exposure to glutamate (20 μM) in Locke's medium. The percentage of neuronal survival 24 h after the onset of insult is given as mean values±SD.

PC12 cells = assay: Protection of PC12 cells against camptothecin-induced cell death (BCECF AM fluorescence); assay type: cell-based
Procedure: The 2-amino-4,5,6,7-tetrahydrobenzothiazole hydrogen iodide, 1-(4-methylphenyl)-2-(4,5,6,7-tetrahydro-2-imino-3(2H)-benzothiazolyl)-ethanone hydrobromide, and analogues were tested for their ability to protect PC12 cells against the toxic agent, camptothecin. PC12 cells were cultured in RPMI1640 media containing 10% horse serum and 5% fetal calf serum (37° C., pH 7.4) until confluent. Thereafter, 2.2×10^4 cells per mL were added to each trough of a 96 well plate (approximately 6,270 cells per well 285 μL) and were left to grow for 12 h. The media then was removed and was replaced by media with and without the compounds to be tested, including precursor, PFTα, and numerous analogues (concentration 100-400 nM, prepared in DMSO to a final dilution of 0.4%, 8 wells per concentration). Following 6 h of incubation, camptothecin (40 μM) was added to 4 of each 8 wells, and the cells were incubated for a further 24 h. Cells then were gently washed twice with phosphate buffered saline (PBS: 0.1 M, 37° C., pH 7.4) and were incubated in PBS containing the live-cell indicator dye, 2′,7′-bis(2-carboxyethey)-5-6-carboxyfluorescein AM ester (BCECF AM: 5 μM) (Molecular Probes, CA), for 45 min in minimal light. This fluorescent dye was taken up and retained by live cells. Finally, the cells were washed twice in PBS and their fluorescence then was quantified (excitation: 490 nm, emission: 535 nm, Perkin Elmer HTS 7000).
PC12 cell survival was also assessed. One hundred percent cell survival was determined from cells incubated in the absence of both any compound and camptothecin. […] Compound-induced toxicity was assessed by comparing cells treated with compound at various concentrations in the absence of camptothecin with cells incubated in the absence of both compound and camptothecin. […] Compound-induced cellular protection was assessed by comparing cells incubated with camptothecin with cells incubated with camptothecin in the presence of compound, in a concentration-dependent manner.

SMILES | caspase activation (in words) (caspase activation) | neuroprotection of hippocampal neurons against camptothecin (in words) (rat hippocampal neurons) | neuroprotection of hippocampal neurons against etoposide (in words) (rat hippocampal neurons) | protection of primary hippocampal cells against death induced by camptothecin and etoposide (in words) (rat hippocampal neurons) | neuronal survival (rat hippocampal neurons) [%] | protection of hippocampal neurons against glutamate-induced death (in words) [1] | neuron survival increased [1] [%] | EC50 (PC12 cells; 6 h preincubation with compound, camptothecin 40 μM for 24 h; read-out: PD50; concentration of compounds required to induce 50% protection (PC50) of PC12 cells from camptothecin-induced cell-death) [µM] | protection of hippocampal neurons against glutamate-induced death (in words) ([1]; Hydrobromide) | EC50 (PC12 cells; read-out: PD50; concentration of compounds required to induce 50% protection (PC50) of PC12 cells from camptothecin-induced cell-death; 6 h preincubation with compound, camptothecin 40 μM for 24 h) [µM]
Br.CCC(=O)Cn1c2c(sc1=N)CCCC2 [Compound 1, 1-(4.5,6,7-tertahydro-2-imino-3(2H)-benzothiazolyl)-2-butanone Hydrobromide] | suppress caspase activation | significant neuroprotection | more active than compound PFTα | had neuroprotection; also recorded: highly potency | 65 | protect | 39 | 0.571 | – | –
N=c1sc2c(n1Cc1ccccc1)CCCC2 [Compound 14, 3-(phenylmethyl)-4,5,6,7-tetrahydro-2(3H)-benzothiazolimine Hydrobromide] | suppress caspase activation | significant neuroprotection | more active than compound PFTα | had neuroprotection; also recorded: highly potency | 61 | – | 133 | – | protect; also recorded: at least partially reversed | 0.741
